Experimental data taken from paper PMC10247784, “Physiological activation of human and mouse bitter taste receptors by bile acids” (Communications Biology, 2023).

Target: T1, mouse Tas2r108 (Mus musculus, UniProt Q9JKT3)
T1 construct: expressed in transfected cells; host or cells: HEK293T-Gα16gust44
T1 sequence (Q9JKT3 1-297): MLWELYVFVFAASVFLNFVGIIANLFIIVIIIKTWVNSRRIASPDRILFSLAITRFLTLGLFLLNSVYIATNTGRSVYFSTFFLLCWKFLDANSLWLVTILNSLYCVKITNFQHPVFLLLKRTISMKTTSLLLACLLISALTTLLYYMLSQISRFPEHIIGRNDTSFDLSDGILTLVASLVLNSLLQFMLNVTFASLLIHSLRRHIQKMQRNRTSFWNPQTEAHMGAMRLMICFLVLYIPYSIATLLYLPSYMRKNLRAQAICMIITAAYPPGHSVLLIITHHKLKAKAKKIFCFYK
Assay: Calcium imaging assay (FLIPR), HEK293T-Gα16gust44 cells transfected with mouse Tas2r108
Type: cell-based
Settings: for Δ F/F: Tas2r108
Experimental: This set of bile acids was chosen because of their commercial availability in high purities, their diversity within the class of bile acids and their previous detection and quantitation in human blood. Stock solutions were prepared in DMSO.
As basal growth medium for the HEK293T-Gα16gust44 cell line[17],[59] served Dulbecco’s modified eagle medium (DMEM) (Thermo Fisher Scientific, Darmstadt, Germany) supplemented with 10 % fetal bovine serum (Sigma-Aldrich, Steinheim, Germany), 2 mM L-glutamine (Sigma-Aldrich, Steinheim, Germany), 100 units/ml penicillin (Sigma Aldrich, Steinheim, Germany) and 100 µg/ml streptomycin (Sigma Aldrich, Steinheim, Germany). Growth conditions were 37 °C, 5 % CO2 and saturated air-humidity[60].
HEK293T-Gα16gust44 cells were seeded on poly-D-lysine (10 µg/ml) coated 96-well plates to reach a confluence of 40-60 % the next day. For transient transfection 150 ng of plasmid DNA containing the receptor of interest and 0.3 µl lipofectamine 2000 (Thermo Fisher Scientific, Darmstadt, Germany) per well were used and transfection took place according to the manual of lipofectamine 2000. […] The empty vector DNA (mock) was transfected as negative control[14],[41].
Cells were loaded using the calcium-sensitive fluorescent dye Fluo-4-AM (Abcam, Cambridge, Great Britain) in the presence of 2.5 mM probenecid (Sigma-Aldrich, Steinheim, Germany) the day after transfection[13],[41]. 1 h after loading, cells were washed with C1 buffer using a BioTek Cell Washer, incubated in the dark for half an hour and washed again. For automated agonist application and measurement of fluorescence changes, a FLIPR^TETRA device (Molecular Devices, San José, United States) was used. Viability of cells was tested by application of 100 nM Somatostatin 14 (Bachem, Bubendorf, Switzerland)[42].
Measured data were negative control corrected by subtracting the signal of the mock-transfected cells and exported to Microsoft Excel using the FLIPR software ScreenWorks 4.2. In Microsoft Excel software, standardization of maximum fluorescence intensities to the basal fluorescence and normalization to the buffer-only control was done to calculate the relative fluorescence changes (ΔF/F).
Initial screening experiments performed in duplicate wells were confirmed by at least one replication and representative traces were selected for display. All dose-response relationships were determined by three independent experiments (biological replicates) performed in duplicates (technical replicates). Threshold concentrations, defined as lowest substance concentrations leading to statistically significant elevated fluorescence changes in receptor-transfected cells compared with empty vector-transfected cells, were determined using SigmaPlot with Student’s t-test to evaluate statistical significance (p < 0.01).

C[C@H](CCC(=O)NCC(=O)O)[C@H]1CC[C@H]2[C@@H]3[C@H](O)C[C@@H]4C[C@H](O)CC[C@]4(C)[C@H]3C[C@H](O)[C@]12C [Glycocholic Acid, glycocholic acid]
Δ F/F (conc. 0,01 mM): 0.0107 | Δ F/F (conc. 0,1 mM): 0.0182 | Δ F/F (conc. 0,03 mM): 0.00676 | Δ F/F (conc. 0,3 mM): 0.06222 | Δ F/F (conc. 0,001 mM): 0.002806 | Δ F/F (conc. 1 mM): 0.4313 | Δ F/F (conc. 0,003 mM): 0.003344 | RLU (Time 0 s): 0 RLU | RLU (Time 2 s): 7.69 RLU | RLU (Time 4 s): 11.6885 RLU | RLU (Time 6 s): 14.9144 RLU | RLU (Time 8 s): 2.856 RLU | RLU (Time 12 s): -20.1582 RLU | RLU (Time 14 s): -24.1348 RLU | RLU (Time 16 s): -22.3266 RLU | RLU (Time 18 s): -18.1852 RLU | RLU (Time 137.562 s): 194.213 RLU | RLU (Time 143.562 s): 209.767 RLU | RLU (Time 149.562 s): 181.475 RLU | RLU (Time 155.562 s): 183.974 RLU | RLU (Time 161.562 s): 173.161 RLU | RLU (Time 167.562 s): 179.231 RLU | RLU (Time 173.562 s): 187.201 RLU | RLU (Time 179.562 s): 174.25 RLU | RLU (Time 185.562 s): 178.039 RLU | RLU (Time 191.562 s): 190.798 RLU | RLU (Time 197.562 s): 173.368 RLU | RLU (Time 203.562 s): 190.575 RLU | RLU (Time 209.562 s): 197.772 RLU | RLU (Time 215.562 s): 163.432 RLU | RLU (Time 221.562 s): 153.254 RLU | RLU (Time 227.562 s): 164.71 RLU | RLU (Time 233.562 s): 163.97 RLU | RLU (Time 239.562 s): 147.809 RLU | RLU (Time 245.562 s): 173.351 RLU | RLU (Time 293.562 s): 149.968 RLU | RLU (Time 299.562 s): 165.311 RLU | RLU (Time 305.562 s): 159.539 RLU | RLU (Time 311.562 s): 142.659 RLU | RLU (Time 317.562 s): 150.371 RLU | RLU (Time 323.562 s): 171.186 RLU | RLU (Time 329.562 s): 175.087 RLU | RLU (Time 335.562 s): 172.597 RLU | RLU (Time 341.562 s): 183.065 RLU | RLU (Time 347.562 s): 201.017 RLU | RLU (Time 353.562 s): 156.745 RLU | RLU (Time 359.562 s): 154.549 RLU | Activation threshold concentration Tas2r108 (p < 0.01 vs empty vector): 100 µM | RLU (time 18.797 s): -15.9795 RLU | RLU (time 20.797 s): -38.1063 RLU | RLU (time 22.797 s): -53.0656 RLU | RLU (time 24.797 s): -41.093 RLU | RLU (time 26.797 s): 10.1284 RLU | RLU (time 28.797 s): -11.2259 RLU | RLU (time 30.797 s): 42.3249 RLU | RLU (time 32.797 s): 14.625 RLU | RLU (time 34.797 s): 31.6874 RLU | RLU (time 36.797 s): 61.9173 RLU | RLU (time 38.797 s): 95.7369 RLU | RLU (time 40.797 s): 96.8837 RLU | RLU (time 42.797 s): 120.977 RLU | RLU (time 44.797 s): 126.004 RLU | RLU (time 46.797 s): 150.942 RLU | RLU (time 48.797 s): 139.074 RLU | RLU (time 50.797 s): 165.429 RLU | RLU (time 52.797 s): 178.894 RLU | RLU (time 54.797 s): 165.569 RLU | RLU (time 56.797 s): 184.08 RLU | RLU (time 58.797 s): 203.839 RLU | RLU (time 60.797 s): 208.856 RLU | RLU (time 62.797 s): 198.008 RLU | RLU (time 64.797 s): 192.835 RLU | RLU (time 66.797 s): 228.59 RLU | RLU (time 68.797 s): 198.902 RLU | RLU (time 70.797 s): 190.075 RLU | RLU (time 72.797 s): 224.267 RLU | RLU (time 74.797 s): 237.802 RLU | RLU (time 76.797 s): 195.521 RLU | RLU (time 78.797 s): 205.632 RLU | RLU (time 80.797 s): 224.221 RLU | RLU (time 82.797 s): 233.724 RLU | RLU (time 84.797 s): 213.598 RLU | RLU (time 86.797 s): 226.297 RLU | RLU (time 88.797 s): 230.997 RLU | RLU (time 90.797 s): 224.416 RLU | RLU (time 92.797 s): 254.391 RLU | RLU (time 94.797 s): 247.364 RLU | RLU (time 96.797 s): 231.951 RLU | RLU (time 98.797 s): 231.597 RLU | RLU (time 100.797 s): 210.393 RLU | RLU (time 102.797 s): 230.574 RLU | RLU (time 104.797 s): 222.002 RLU | RLU (time 106.797 s): 222.39 RLU | RLU (time 108.797 s): 212.16 RLU | RLU (time 110.797 s): 216.252 RLU | RLU (time 112.797 s): 216.052 RLU | RLU (time 114.797 s): 221.895 RLU | RLU (time 116.797 s): 215.342 RLU | RLU (time 118.797 s): 209.462 RLU | RLU (time 120.797 s): 222.728 RLU | RLU (time 122.797 s): 206.205 RLU | RLU (time 124.797 s): 193.188 RLU | RLU (time 126.797 s): 207.494 RLU | RLU (time 128.797 s): 210.082 RLU | RLU (time 130.797 s): 216.943 RLU | RLU (time 132.797 s): 210.174 RLU | RLU (time 134.797 s): 194.975 RLU | RLU (time 136.797 s): 218.165 RLU
